Laboratory results: ChEMBL document CHEMBL1201861, “Genomics of Drug Sensitity in Cancer screening data, Wellcome Trust Sanger Institute”

Tests used:
Assay in all cases: cells
CaR-1 = assay type: functional, cell-based, Homo sapiens; conditions: Homo sapiens, CaR-1;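 further: growth inhibition of human CaR-1 cancer cells, read out with a cell viability assay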
Description: SANGER: Inhibition of human CaR-1 cell growth in a cell viability assay.

ChaGo-K-1 = assay type: functional, cell-based; conditions: Homo sapiens;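 further: growth inhibition of ChaGo-K-1 cells, read out with a cell viability assay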
Description: SANGER: Inhibition of human ChaGo-K-1 cell growth in a cell viability assay.

DMS-273 = assay type: functional, cell-based, Homo sapiens; conditions: Homo sapiens, DMS-273
Description: SANGER: Inhibition of human DMS-273 cell growth in a cell viability assay.

DOHH-2 = assay type: functional, cell-based; conditions: Homo sapiens;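 further: growth inhibition of human DOHH-2 cells, read out with a cell viability assay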
Description: SANGER: Inhibition of human DOHH-2 cell growth in a cell viability assay.

DU-145 = assay type: functional, cell-based, Homo sapiens; conditions: Homo sapiens, DU-145
Description: SANGER: Inhibition of human DU-145 cell growth in a cell viability assay.

EKVX = assay type: functional, cell-based, Homo sapiens; conditions: Homo sapiens, EKVX;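 further: growth inhibition of human EKVX cells, read out with a cell viability assay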
Description: SANGER: Inhibition of human EKVX cell growth in a cell viability assay.

EW-3 = assay type: functional, cell-based; conditions: Homo sapiens;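 further: cell viability assay read-out, IC50 reflects inhibition of growth of the EW-3 cells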
Description: SANGER: Inhibition of human EW-3 cell growth in a cell viability assay.

HCC 2998 = assay type: functional, cell-based, Homo sapiens; conditions: Homo sapiens, HCC 2998;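 further: growth inhibition of human HCC2998 cells, measured with a cell viability read-out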
Description: SANGER: Inhibition of human HCC2998 cell growth in a cell viability assay.

HCC38 = assay type: functional, cell-based, Homo sapiens; conditions: Homo sapiens, HCC38;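 further: cell viability assay on the human HCC38 cell line, with IC50 marking the concentration that inhibits cell growth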
Description: SANGER: Inhibition of human HCC38 cell growth in a cell viability assay.

HDLM-2 = assay type: functional, cell-based; conditions: Homo sapiens;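 further: cell viability assay measuring suppression of HDLM-2 proliferation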
Description: SANGER: Inhibition of human HDLM-2 cell growth in a cell viability assay.

HN = assay type: functional, cell-based, Homo sapiens; conditions: Homo sapiens, HN
Description: SANGER: Inhibition of human HN cell growth in a cell viability assay.

HT-29 = assay type: functional, cell-based, Homo sapiens; conditions: Homo sapiens, HT-29;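 further: growth inhibition of human HT-29 cells, read out by a cell viability assay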
Description: SANGER: Inhibition of human HT-29 cell growth in a cell viability assay.

HTC-C3 = assay type: functional, cell-based, Homo sapiens; conditions: Homo sapiens, HTC-C3;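 further: inhibition of cell growth, read out with a cell viability assay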
Description: SANGER: Inhibition of human HTC-C3 cell growth in a cell viability assay.

IGROV-1 = assay type: functional, cell-based, Homo sapiens; conditions: Homo sapiens, IGROV-1;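 further: reduction of IGROV-1 cell growth, read out with a viability assay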
Description: SANGER: Inhibition of human IGROV-1 cell growth in a cell viability assay.

KALS-1 = assay type: functional, cell-based, Homo sapiens; conditions: Homo sapiens, KALS-1;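 further: growth inhibition of KALS-1 cells, determined with a cell viability assay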
KNS-81-FD = assay type: functional, cell-based, Homo sapiens; conditions: Homo sapiens, KNS-81-FD;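 further: growth inhibition of KNS-81-FD cells, read out with a cell viability assay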
Description: SANGER: Inhibition of human KNS-81-FD cell growth in a cell viability assay.

KP-N-YS = assay type: functional, cell-based; conditions: Homo sapiens;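 further: cell viability assay measuring inhibition of cell line growth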
Description: SANGER: Inhibition of human KP-N-YS cell growth in a cell viability assay.

KYSE-510 = assay type: functional, cell-based, Homo sapiens; conditions: Homo sapiens, KYSE-510;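 further: cell viability readout used to measure how strongly growth of the cell line is suppressed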
Description: SANGER: Inhibition of human KYSE-510 cell growth in a cell viability assay.

LB1047-RCC = assay type: functional, cell-based, Homo sapiens; conditions: Homo sapiens, LB1047-RCC;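 further: inhibition of cell growth, determined with a cell viability assay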
Description: SANGER: Inhibition of human LB1047-RCC cell growth in a cell viability assay.

LB831-BLC = assay type: functional, cell-based, Homo sapiens; conditions: Homo sapiens, LB831-BLC;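 further: growth inhibition of LB831-BLC cells, read out with a cell viability assay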
Description: SANGER: Inhibition of human LB831-BLC cell growth in a cell viability assay.

LCLC-103H cell line = assay type: functional, cell-based, Homo sapiens; conditions: Homo sapiens, LCLC-103H
Description: SANGER: Inhibition of human LCLC-103H cell growth in a cell viability assay.

NB10 = assay type: functional, cell-based, Homo sapiens; conditions: Homo sapiens, NB10;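 further: growth inhibition of NB10 cells, read out by a cell viability assay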
Description: SANGER: Inhibition of human NB10 cell growth in a cell viability assay.

NCI-H1299 = assay type: functional, cell-based, Homo sapiens; conditions: Homo sapiens, NCI-H1299;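 further: growth inhibition of human NCI-H1299 cells, read out by a cell viability assay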
Description: SANGER: Inhibition of human NCI-H1299 cell growth in a cell viability assay.

NCI-H2030 = assay type: functional, cell-based, Homo sapiens; conditions: Homo sapiens, NCI-H2030;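 further: growth inhibition of human NCI-H2030 cells, read out by a cell viability assay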
Description: SANGER: Inhibition of human NCI-H2030 cell growth in a cell viability assay.

NCI-H28 = assay type: functional, cell-based, Homo sapiens; conditions: Homo sapiens, NCI-H28;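 further: growth inhibition of human NCI-H28 cells, read out as cell viability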
Description: SANGER: Inhibition of human NCI-H28 cell growth in a cell viability assay.

NCI-H69 = assay type: functional, cell-based; conditions: Homo sapiens;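 further: growth inhibition of the cell line, read out with a cell viability assay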
Description: SANGER: Inhibition of human NCI-H69 cell growth in a cell viability assay.

NH-12 = assay type: functional, cell-based, Homo sapiens; conditions: Homo sapiens, NH-12;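 further: growth inhibition of NH-12 cells, read out with a cell viability assay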
Description: SANGER: Inhibition of human NH-12 cell growth in a cell viability assay.

NOS-1 = assay type: functional, cell-based, Homo sapiens; conditions: Homo sapiens, NOS-1;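 further: growth inhibition of the human NOS-1 cell line, read out with a cell viability assay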
Description: SANGER: Inhibition of human NOS-1 cell growth in a cell viability assay.

NY = assay type: functional, cell-based, Homo sapiens; conditions: Homo sapiens, NY
Description: SANGER: Inhibition of human NY cell growth in a cell viability assay.

OAW-42 = assay type: functional, cell-based, Homo sapiens; conditions: Homo sapiens, OAW-42;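 further: growth inhibition of OAW-42 cells, read out with a cell viability assay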
Description: SANGER: Inhibition of human OAW-42 cell growth in a cell viability assay.

RKO = assay type: functional, cell-based, Homo sapiens; conditions: Homo sapiens, RKO;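 further: growth inhibition of human RKO cells, read out with a cell viability assay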
RPMI-8226 = assay type: functional, cell-based; conditions: Homo sapiens
Description: SANGER: Inhibition of human RPMI-8226 cell growth in a cell viability assay.

SK-LMS-1 = assay type: functional, cell-based, Homo sapiens; conditions: Homo sapiens, SK-LMS-1;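 further: growth inhibition of human SK-LMS-1 cells, read out with a cell viability assay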
Description: SANGER: Inhibition of human SK-LMS-1 cell growth in a cell viability assay.

SK-MEL-28 = assay type: functional, cell-based; conditions: Homo sapiens;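 further: growth inhibition of human SK-MEL-28 cells, read out with a cell viability assay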
Description: SANGER: Inhibition of human SK-MEL-28 cell growth in a cell viability assay.

SK-MEL-30 = assay type: functional, cell-based; conditions: Homo sapiens;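 further: growth inhibition of SK-MEL-30 cells, determined with a cell viability assay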
Description: SANGER: Inhibition of human SK-MEL-30 cell growth in a cell viability assay.

SK-N-AS = assay type: functional, cell-based, Homo sapiens; conditions: Homo sapiens, SK-N-AS;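 further: growth inhibition of human SK-N-AS cells, measured with a cell viability assay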
Description: SANGER: Inhibition of human SK-N-AS cell growth in a cell viability assay.

SW1417 = assay type: functional, cell-based, Homo sapiens; conditions: Homo sapiens, SW1417;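 further: growth inhibition of human SW1417 cells, read out with a cell viability assay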
Description: SANGER: Inhibition of human SW1417 cell growth in a cell viability assay.

SW948 = assay type: functional, cell-based, Homo sapiens; conditions: Homo sapiens, SW948;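 further: growth inhibition of SW948 cells, read out with a cell viability assay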
Description: SANGER: Inhibition of human SW948 cell growth in a cell viability assay.

SW 954 = assay type: functional, cell-based, Homo sapiens; conditions: Homo sapiens, SW 954;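 further: growth inhibition of SW954 human cancer cells, read out as cell viability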
Description: SANGER: Inhibition of human SW954 cell growth in a cell viability assay.

647-V = assay type: functional, cell-based, Homo sapiens; conditions: Homo sapiens, 647-V;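 further: growth inhibition of 647-V cells, read out with a cell viability assay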
Description: SANGER: Inhibition of human 647-V cell growth in a cell viability assay.

A101D = assay type: functional, cell-based, Homo sapiens; conditions: Homo sapiens, A101D;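 further: growth inhibition of the cell line, measured with a viability assay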
Description: SANGER: Inhibition of human A101D cell growth in a cell viability assay.

A3-KAW = assay type: functional, cell-based; conditions: Homo sapiens;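 further: growth inhibition of human A3-KAW cells, read out with a cell viability assay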
Description: SANGER: Inhibition of human A3-KAW cell growth in a cell viability assay.

A4-Fuk = assay type: functional, cell-based; conditions: Homo sapiens;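 further: growth inhibition of A4-Fuk cells, read out by a cell viability assay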
Description: SANGER: Inhibition of human A4-Fuk cell growth in a cell viability assay.

AGS = assay type: functional, cell-based, Homo sapiens; conditions: Homo sapiens, AGS;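 further: growth inhibition of AGS cells, determined with a cell viability assay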
Description: SANGER: Inhibition of human AGS cell growth in a cell viability assay.

ATN-1 = assay type: functional, cell-based; conditions: Homo sapiens;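 further: growth inhibition of human ATN-1 cells, read out with a cell viability assay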
Description: SANGER: Inhibition of human ATN-1 cell growth in a cell viability assay.

BFTC-909 = assay type: functional, cell-based, Homo sapiens; conditions: Homo sapiens, BFTC-909
Description: SANGER: Inhibition of human BFTC-909 cell growth in a cell viability assay.

BHY = assay type: functional, cell-based, Homo sapiens; conditions: Homo sapiens, BHY;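 further: cell growth inhibition read out by a viability assay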
C8166 = assay type: functional, cell-based; conditions: Homo sapiens;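 further: growth inhibition of human C8166 cells measured by a cell viability assay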
Description: SANGER: Inhibition of human C8166 cell growth in a cell viability assay.

UMC-11 = assay type: functional, cell-based, Homo sapiens; conditions: Homo sapiens, UMC-11;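 further: growth inhibition of UMC-11 cells, read out with a cell viability assay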
Description: SANGER: Inhibition of human UMC-11 cell growth in a cell viability assay.

no-10 = assay type: functional, cell-based, Homo sapiens; conditions: Homo sapiens;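 further: growth inhibition of no-10 cells, read out with a cell viability assay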
Description: SANGER: Inhibition of human no-10 cell growth in a cell viability assay.

CAS-1 = assay type: functional, cell-based, Homo sapiens; conditions: Homo sapiens, CAS-1;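 further: growth inhibition of CAS-1 cells, measured with a cell viability assay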
COLO-680N = assay type: functional, cell-based, Homo sapiens; conditions: Homo sapiens, COLO-680N;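 further: cell viability assay used to measure inhibition of COLO-680N cell growth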
Description: SANGER: Inhibition of human COLO-680N cell growth in a cell viability assay.

Measured: IC50

Cc1ccc(Nc2nccc(N(C)c3ccc4c(C)n(C)nc4c3)n2)cc1S(N)(=O)=O [PAZOPANIB]
1450 nM: LCLC-103H cell line
1850 nM: NY
7760 nM: CAS-1
3250 nM: IGROV-1
2550 nM: LB831-BLC
4960 nM: DMS-273
3530 nM: LB1047-RCC
660 nM: NOS-1
> 8000 nM: all other assays above

CN(c1ncccc1CNc1nc(Nc2ccc3c(c2)CC(=O)N3)ncc1C(F)(F)F)S(C)(=O)=O [PF-00562271]
2000 nM: SW 954
810 nM: IGROV-1
1560 nM: LCLC-103H cell line
2010 nM: LB831-BLC
1660 nM: BHY
1520 nM: AGS
2490 nM: DU-145
> 2560 nM: all other assays above
